Measurements from PubChem BioAssay AID328 (DTP/NCI, 2004).
“And” between values parts separate entries of the source, which are not always exact repeats. Equal values may be shown once. Inconclusive results and toxic doses are left out. How the source made its calls: active means survival T/C of 150% or more; inactive means T/C below 125% in these data.

System: BDF1 mice, P388 leukemia ip, median survival T/C
Test: NCI In Vivo Anticancer Drug Screen. Data for tumor model P388 Leukemia (intraperitoneal) in B6D2F1 (BDF1) mice
Conditions: endpoint: median survival time, higher = longer survival
Method in brief: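 Each value expresses how treatment altered survival: treated-mouse outcome over vehicle-mouse outcome, both groups bearing the transplanted tumour.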

[1] = dose: 6.25 mg/kg/injection, schedule: Q01DX009 (ip), vehicle: saline with Tween-80
[2] = dose: 100.0 mg/kg/injection, schedule: Q01DX009 (ip), vehicle: Klucel (hydroxypropylcellulose) (HPC)
[3] = dose: 200.0 mg/kg/injection, schedule: Q01DX009 (ip), vehicle: Klucel (hydroxypropylcellulose) (HPC)
[4] = dose: 400.0 mg/kg/injection, schedule: Q01DX009 (ip), vehicle: Klucel (hydroxypropylcellulose) (HPC)
[5] = dose: 50.0 mg/kg/injection, schedule: Q01DX009 (ip), vehicle: saline with Tween-80
[6] = dose: 100.0 mg/kg/injection, schedule: Q01DX009 (ip), vehicle: saline with Tween-80
[7] = dose: 200.0 mg/kg/injection, schedule: Q01DX009 (ip), vehicle: saline with Tween-80
[8] = dose: 25.0 mg/kg/injection, schedule: Q01DX009 (ip), vehicle: saline
[9] = dose: 50.0 mg/kg/injection, schedule: Q01DX009 (ip), vehicle: saline
[10] = dose: 100.0 mg/kg/injection, schedule: Q01DX009 (ip), vehicle: saline
[11] = dose: 100.0 mg/kg/injection, schedule: Q04DX003 (ip), vehicle: saline
[12] = dose: 200.0 mg/kg/injection, schedule: Q01DX009 (ip), vehicle: saline
[13] = dose: 200.0 mg/kg/injection, schedule: Q04DX003 (ip), vehicle: saline
[14] = dose: 400.0 mg/kg/injection, schedule: Q01DX009 (ip), vehicle: saline
[15] = dose: 400.0 mg/kg/injection, schedule: Q04DX003 (ip), vehicle: saline
[16] = dose: 12.5 mg/kg/injection, schedule: Q01DX009 (ip), vehicle: saline with Tween-80
[17] = dose: 25.0 mg/kg/injection, schedule: Q01DX009 (ip), vehicle: saline with Tween-80

Measured: T/C

CN1CCN(C(=O)Nc2ccc(N=Nc3ccccc3)cc2)CC1
inactive: dose: 4.16 mg/kg/injection, schedule: Q01DX009 (ip), vehicle: saline with Tween-80 100 % of control | [1] 90 % of control | dose: 9.38 mg/kg/injection, schedule: Q01DX009 (ip), vehicle: saline with Tween-80 90 % of control | dose: 50.0 mg/kg/injection, schedule: Q04DX003 (ip), vehicle: saline sonified 95 % of control | dose: 100.0 mg/kg/injection, schedule: Q04DX003 (ip), vehicle: saline sonified 100 % of control

Cc1ccc2nc3c4ccccc4c4ccccc4c3nc2c1
inactive: [2] 109 % of control | [3] 90 % of control | [4] 100 % of control

CN(C)c1ccc(-c2cc[n+](C)cc2)cc1
inactive: dose: 0.5 mg/kg/injection, schedule: Q01DX009 (ip), vehicle: saline 119 % of control | dose: 1.0 mg/kg/injection, schedule: Q01DX009 (ip), vehicle: saline 111 % of control | dose: 2.0 mg/kg/injection, schedule: Q01DX009 (ip), vehicle: saline 91 % of control | dose: 3.0 mg/kg/injection, schedule: Q01DX009 (ip), vehicle: saline 106 % of control | dose: 6.0 mg/kg/injection, schedule: Q01DX009 (ip), vehicle: saline 114 % of control

CC(C)(O)C(NC(N)=O)c1ccccc1 (configuration not stated)
inactive: [5] 104 % of control | [6] 101 % of control | [7] 100 % of control

CC(C)SC=O
inactive: [8] 100 % of control | [9] 101 % of control | dose: 50.0 mg/kg/injection, schedule: Q04DX003 (ip), vehicle: saline 101 % of control | [10] 92 % of control and 97 % of control | [11] 109 % of control | [12] 86 % of control | [13] 98 % of control | [14] 97 % of control and 118 % of control | [15] 103 % of control

O=C1CC/C(=N\O)N1
inactive: dose: 75.0 mg/kg/injection, schedule: Q01DX009 (ip), vehicle: saline 93 % of control | dose: 150.0 mg/kg/injection, schedule: Q01DX009 (ip), vehicle: saline 86 % of control

COc1ccccc1NC(=O)c1ccc(Cl)cc1
inactive: [2] 100 % of control | dose: 100.0 mg/kg/injection, schedule: Q04DX003 (ip), vehicle: Klucel (hydroxypropylcellulose) (HPC) 100 % of control | [3] 100 % of control | dose: 200.0 mg/kg/injection, schedule: Q04DX003 (ip), vehicle: Klucel (hydroxypropylcellulose) (HPC) 100 % of control | [4] 104 % of control | dose: 400.0 mg/kg/injection, schedule: Q04DX003 (ip), vehicle: Klucel (hydroxypropylcellulose) (HPC) 109 % of control

O=C(Nc1cccc2c1C(=O)c1cccc(NC(=O)c3ccc(C(=O)Nc4cccc5c4C(=O)c4cccc(NC(=O)c6ccccc6)c4C5=O)cc3)c1C2=O)c1ccccc1
inactive: [1] 92 % of control | [16] 107 % of control | [17] 111 % of control

O=C1NC(=O)C(c2cccs2)(c2cccs2)N1
inactive: dose: 25.0 mg/kg/injection, schedule: Q01DX009 (ip), vehicle: water 115 % of control | dose: 100.0 mg/kg/injection, schedule: Q01DX009 (ip), vehicle: water 111 % of control | dose: 100.0 mg/kg/injection, schedule: Q04DX003 (ip), vehicle: water 99 % of control | dose: 200.0 mg/kg/injection, schedule: Q04DX003 (ip), vehicle: water 98 % of control

CCOC(=O)CCc1nn(C)c2ccc(CC)cc2c1=O
inactive: [5] 101 % of control | [6] 92 % of control | [7] 90 % of control

CN(S(=O)(=O)CC(F)(F)F)S(=O)(=O)C(F)(F)F
inactive: dose: 6.25 mg/kg/injection, schedule: Q01DX009 (ip), vehicle: saline 100 % of control | [8] 108 % of control | [10] 100 % of control

Cc1c[n+]2ccccc2n1C
inactive: [8] 100 % of control | [9] 104 % of control

O=CN1CCN(c2ccc([N+](=O)[O-])c3nonc23)CC1
inactive: dose: 15.0 mg/kg/injection, schedule: Q01DX009 (ip), vehicle: saline with Tween-80 103 % of control | dose: 20.0 mg/kg/injection, schedule: Q04DX003 (ip), vehicle: saline with Tween-80 100 % of control | dose: 30.0 mg/kg/injection, schedule: Q01DX009 (ip), vehicle: saline with Tween-80 100 % of control | dose: 40.0 mg/kg/injection, schedule: Q04DX003 (ip), vehicle: saline with Tween-80 99 % of control | dose: 80.0 mg/kg/injection, schedule: Q04DX003 (ip), vehicle: saline with Tween-80 95 % of control

Cc1ccc(-c2nc3sccn3c2/C=N/NC(N)=S)cc1
inactive: dose: 100.0 mg/kg/injection, schedule: Q01DX001 (ip), vehicle: Klucel (hydroxypropylcellulose) (HPC) 100 % of control | dose: 400.0 mg/kg/injection, schedule: Q01DX001 (ip), vehicle: Klucel (hydroxypropylcellulose) (HPC) 95 % of control

Clc1cc(CBr)c(CBr)cc1Cl
inactive: [16] 100 % of control

Cn1ccn(C2CCCCC2)c1=O
inactive: dose: 25.0 mg/kg/injection, schedule: Q04DX003 (ip), vehicle: saline with Tween-80 95 % of control | dose: 50.0 mg/kg/injection, schedule: Q04DX003 (ip), vehicle: saline with Tween-80 100 % of control

Cc1nc2ccccc2c(=O)n1/N=C/c1ccco1
inactive: [5] 107 % of control | [6] 90 % of control

CC1(c2ccc(Cl)s2)NC(=O)NC1=O (configuration not stated)
inactive: dose: 300.0 mg/kg/injection, schedule: Q04DX003 (ip), vehicle: saline with Tween-80 100 % of control | dose: 400.0 mg/kg/injection, schedule: Q04DX003 (ip), vehicle: saline with Tween-80 98 % of control | dose: 600.0 mg/kg/injection, schedule: Q04DX003 (ip), vehicle: saline with Tween-80 86 % of control

CC1=NN(c2ccccc2)C(=O)C1C(=S)SC1CC(=O)OC1=O (configuration not stated)
inactive: [5] 100 % of control | [6] 112 % of control

Cc1ccc(C)c(-n2c(-c3ccc(Br)cc3)csc2=NC(=O)c2ccccc2F)c1
inactive: [6] 110 % of control | [7] 100 % of control | dose: 400.0 mg/kg/injection, schedule: Q01DX009 (ip), vehicle: saline with Tween-80 115 % of control

C=C1CCC2C1C1C(C(C)C)CCC21C (configuration not stated)
inactive: [5] 105 % of control | [6] 104 % of control

CC(C)=CC(=O)OCC1CC[N+](C)([O-])C1 (configuration not stated)
inactive: [10] 100 % of control | dose: 200.0 mg/kg/injection, schedule: Q01DX001 (ip), vehicle: saline 95 % of control | [12] 91 % of control | [14] 103 % of control | dose: 800.0 mg/kg/injection, schedule: Q01DX001 (ip), vehicle: saline 91 % of control | dose: 800.0 mg/kg/injection, schedule: Q01DX009 (ip), vehicle: saline 103 % of control

OC1C=CC2C3C=CC(C3)C12 (configuration not stated)
inactive: [11] 96 % of control | [13] 92 % of control | [15] 103 % of control

CCCCCCc1c(C(OC)OC)[nH]c(=S)[nH]c1=O
inactive: [2] 96 % of control | [3] 89 % of control

Cc1ccc(/C=C2\CC(C)(C)c3ccccc3C2=O)cc1
inactive: dose: 65.0 mg/kg/injection, schedule: Q01DX009 (ip), vehicle: Klucel (hydroxypropylcellulose) (HPC) 90 % of control | [2] 87 % of control and 95 % of control | [4] 100 % of control

CC(C)=CCC(OC(=O)C=C(C)C)C1=CC(=O)c2c(O)ccc(O)c2C1=O (configuration not stated)
inactive: dose: 1.25 mg/kg/injection, schedule: Q01DX009 (ip), vehicle: carboxymethylcellulose (CMC) 100 % of control | dose: 2.5 mg/kg/injection, schedule: Q01DX009 (ip), vehicle: carboxymethylcellulose (CMC) 95 % of control | dose: 3.12 mg/kg/injection, schedule: Q01DX009 (ip), vehicle: water 118 % of control | dose: 6.25 mg/kg/injection, schedule: Q01DX009 (ip), vehicle: water 113 % of control | dose: 6.25 mg/kg/injection, schedule: Q04DX003 (ip), vehicle: water 122 % of control | dose: 12.5 mg/kg/injection, schedule: Q04DX003 (ip), vehicle: water 122 % of control

COc1cccc(CCCC(=O)CS(C)=O)c1 (configuration not stated)
inactive: [9] 98 % of control | [10] 102 % of control | [12] 109 % of control

O=C1CCS(=O)(=O)c2ccccc21
inactive: [1] 101 % of control | [16] 117 % of control | [17] 105 % of control | [5] 98 % of control
